Data taken from publication PMC3818835, “What Goes around Comes around-A Comparative Study of the Influence of Chemical Modifications on the Antimicrobial Properties of Small Cyclic Peptides” (Pharmaceuticals, 2013).
≈ marks a conversion by molar mass, not a printed value. Numbered stars: 1 amine (or outer) side, 2 acyl side, 3 side chain; on linkers, the order of the positions; unused ones are H or OH. Square brackets hold non-standard residues; d marks the D form. Peptide text beside a SMILES is read from it. * marks the point of attachment. 6FAM = O=C1OC2(c3ccc(O)cc3Oc3cc(O)ccc32)c2cc(C(=O)*)ccc21; X1 = COc1ccc2c(CC(N[*:1])C(=O)[*:2])cc(=O)oc2c1; NBD = O=[N+]([O-])c1ccc(*)c2nonc12; X2 = O=c1cc(C*)c2cc(Br)c(O)cc2o1; Dap = NC[C@H](N)C(=O)O

Experiments:
B. subtilis DSM 347 [1] = type: cell-based; details: DSM 347, 18 h
Experimental: (§1) The minimal inhibitory concentration (MIC) of the cyclic hexapeptides was tested against Gram-negative E. coli DH5α and Gram-positive B. subtilis DSM 347 using a microdilution technique in 96 well microtiter plates as described previously. Briefly, cells from an overnight culture were inoculated 1:100 in LB medium, grown to mid log phase (OD600 0.4 ± 0.1) and adjusted to 5 × 10^5 cells/well. Final peptide concentrations ranged from 0.05 µM to 100 µM (2-fold dilutions) and were tested in triplicates in at least three independent experiments. The MIC was determined after 18 h of incubation at 37 °C, 180 rpm being the lowest peptide concentration at which no visible bacterial growth can be detected photometrically (A600, Safire Microplate Reader, Tecan, Männedorf, Germany).

E. coli DH5α [2] = type: cell-based; details: 18 h
Experimental: as §1

human erythrocytes = type: cell-based; details: pH 7.4
Experimental: The lytic effect of selected peptides upon human erythrocytes was determined as described before. Briefly, cells were washed thoroughly in Tris buffer (10 mM Tris, 150 mM NaCl, pH 7.4). Suspensions with 2.5 × 10^8 cells/mL were incubated with peptides at a final concentration of 100 µM for 30 min at 37 °C. After centrifugation, 0.6% NH4OH was added to an aliquot of the supernatant and hemoglobin absorption (A) was measured at 540 nm (Jasco V-550). Whole cell suspensions exposed to NH4OH were used as positive control (A100%) and preparations without peptide served as negative control (A0%), respectively. Data were collected in three independent experiments.

[3] = Hydrophobicity: retention time tR by reversed phase HPLC; type: physicochemical; details: chromatographic, RP-HPLC ProntoSil 300-5-C18-H (250 × 4.6 mm, 5 µm); peptide 1 mg/mL in phase A (0.1% TFA in water); B 0.1% TFA in 80% acetonitrile; linear gradient 5%–95% B over 40 min at 22 °C; used as a measure of hydrophobicity
Experimental: The retention time tR of the cyclic hexapeptides was determined by HPLC on a Jasco LC-2000Plus using a ProntoSil 300-5-C18-H column (250 × 4.6 mm, 5 µm) (Bischoff Chromatography). Peptide concentration was 1 mg/mL in mobile phase A (0.1% TFA in deionized water), mobile phase B consisted of 0.1% TFA in 80% acetonitrile in deionized water. For chromatographic analyses a linear gradient of 5%–95% phase B over 40 min at 22 °C was applied.
To investigate the influence of fluorescent label modification and amino acid substitution on the hydrophobicity/amphipathicity of the cyclic hexapeptide derivatives, we determined the retention time tR by reversed phase HPLC (Figure 2). The method monitors the retention of compounds by the hydrophobic HPLC stationary phase. Differences in tR reflect differences in the effective hydrophobicity of the molecule which is related to the intrinsic hydrophobicity of the individual residues and their ability to form hydrophobic domains for interaction with the HPLC matrix. At the same time, hydrophilic residues will locate at the opposite side of the molecule. Reduction in the size or positioning of cationic residues next to the hydrophobic molecular surface area would reduce amphipathicity. tR-measurements have successfully been applied to characterize amphipathic helices, β-structured peptides and different sets of our small cyclic R-, W-rich peptides.

E. coli DH5α [4] = experiment: Propidium iodide influx (membrane permeabilisation), flow cytometry; type: cell-based; details: FACS, PI 10 µg/mL, peptide at respective MIC, LB, 5 × 10^5 cells/mL, 0-90 min at 37 °C
Experimental: (§2) Membrane permeabilisation was determined by fluorescence activated cell sorting (FACS) on a FACSCalibur (Becton Dickinson) equipped with a 488 nm argon laser. Propidium iodide (PI, 10 µg/mL) and peptides at a final concentration corresponding to the respective MIC were dissolved in LB. Cells were grown to mid log phase (OD600 0.4 ± 0.1) and added to the solution just before the measurement at a concentration of 5 × 10^5 cells/mL. Cells were sorted on the basis of PI fluorescence which increases upon intercalation with DNA. This can only be observed in the case of disturbed membrane integrity as PI cannot translocate across intact lipid bilayers. Cell fluorescence was measured after incubation time points of 0, 5, 10, 15, 20, 30, 60 and 90 min at 37 °C, 180 rpm. A minimum of 20,000 cells was recorded for each preparation. CellQuest^TM Pro software (Becton Dickinson) was used for data acquisition and results were analyzed with FCS Express V3 (De Novo Software, Los Angeles, CA, USA).

B. subtilis DSM 347 [5] = experiment: as above; type: cell-based; details: FACS, PI 10 µg/mL, peptide at respective MIC, LB, 5 × 10^5 cells/mL, 0-90 min at 37 °C
Experimental: as §2

E. coli DH5α [6] = details: 5 µM, PI influx; cited from earlier work
Experimental: Figure 4 Bacterial membrane permeabilisation determined with flow cytometry using propidium iodide (PI). PI influx after incubation with cWFW, fluorescent-labeled and K-substituted cyclic hexapeptides was tested into B. subtilis DSM 347 (A,C) and E. coli DH5α (B,D) at respective MICs. […] Preparations without peptide were used as negative co ...

Row | Compound | MIC B. subtilis DSM 347 (B. subtilis DSM 347 [1]) [µM] | MIC E. coli DH5α (E. coli DH5α [2]) [µM] | Hemolysis at 100 µM (human erythrocytes) [%] | Retention Time tR [3] [min] | PI influx / membrane permeabilisation, E. coli (E. coli DH5α [4]) | PI influx / membrane permeabilisation, B. subtilis (B. subtilis DSM 347 [5]) | Membrane permeabilising potential, Gram-negative cells (positive control) (E. coli DH5α [6])
1 | NCCCC[C@@H]1NC(=O)[C@H](CCCCN)NC(=O)[C@H](Cc2c[nH]c3ccccc23)NC(=O)[C@H](Cc2ccccc2)NC(=O)[C@H](Cc2c[nH]c3ccccc23)NC(=O)[C@H](CCCCN)NC1=O [cKKK] (cyclo(KKKWFW)) | 50 (≈ 45.2 µg/mL) | 100 (≈ 90.4 µg/mL) | 8 | 17.70 |  |  | 
2 | N=C(N)NCCC[C@@H]1NC(=O)[C@H](CCCCN)NC(=O)[C@H](CCCCN)NC(=O)[C@H](Cc2c[nH]c3ccccc23)NC(=O)[C@H](Cc2ccccc2)NC(=O)[C@H](Cc2c[nH]c3ccccc23)NC1=O [cKKR] (cyclo(KKRWFW)) | 25 (≈ 23.3 µg/mL) | 100 (≈ 93.2 µg/mL) | 3 | 17.86 |  |  | 
3 | N=C(N)NCCC[C@@H]1NC(=O)[C@H](CCCCN)NC(=O)[C@H](Cc2c[nH]c3ccccc23)NC(=O)[C@H](Cc2ccccc2)NC(=O)[C@H](Cc2c[nH]c3ccccc23)NC(=O)[C@H](CCCCN)NC1=O [cKRK] (cyclo(KRKWFW)) | 25 (≈ 23.3 µg/mL) | 12 (≈ 11.2 µg/mL) | 2 | 17.27 |  |  | 
4 | COc1ccc2c(CC3NC(=O)[C@H](Cc4c[nH]c5ccccc45)NC(=O)[C@H](CCCCN)NC(=O)[C@H](CCCNC(=N)N)NC(=O)[C@H](CCCCN)NC(=O)[C@H](Cc4c[nH]c5ccccc45)NC3=O)cc(=O)oc2c1 (stereo partly drawn) [cR2[Cu]] (cyclo(KRKW[X1]W)) | 6 (≈ 6.18 µg/mL) | 50 (≈ 51.5 µg/mL) | 4 | 17.20 | pronounced membrane disruption |  | 
5 | N=C(N)NCCC[C@@H]1NC(=O)[C@H](CCCCN)NC(=O)[C@H](Cc2c[nH]c3ccccc23)NC(=O)[C@H](CNc2ccc([N+](=O)[O-])c3nonc23)NC(=O)[C@H](Cc2c[nH]c3ccccc23)NC(=O)[C@H](CCCCN)NC1=O [cR2[NBD]] (cyclo(KRKW[Dap](NBD)W)) | 12 (≈ 12.4 µg/mL) | 50 (≈ 51.7 µg/mL) | 26 | 17.47 | No E. coli membrane permeabilisation could be detected |  | 
6 | N=C(N)NCCC[C@@H]1NC(=O)[C@H](CCCCN)NC(=O)[C@H](Cc2c[nH]c3ccccc23)NC(=O)[C@H](CSCc2cc(=O)oc3cc(O)c(Br)cc23)NC(=O)[C@H](Cc2c[nH]c3ccccc23)NC(=O)[C@H](CCCCN)NC1=O [cR2[S-Cu]] (cyclo(KRKWC(X2)W)) | 25 (≈ 28.5 µg/mL) | 50 (≈ 57.1 µg/mL) | 5 | 17.49 |  |  | 
7 | N=C(N)NCCC[C@@H]1NC(=O)[C@H](Cc2c[nH]c3ccccc23)NC(=O)[C@H](Cc2ccccc2)NC(=O)[C@H](Cc2c[nH]c3ccccc23)NC(=O)[C@H](CCCCN)NC(=O)[C@H](CCCCN)NC1=O [cRKK] (cyclo(RKKWFW)) | 25 (≈ 23.3 µg/mL) | 50 (≈ 46.6 µg/mL) | 56 | 18.38 |  |  | 
8 | N=C(N)NCCC[C@@H]1NC(=O)[C@H](CCCCN)NC(=O)[C@H](CCCNC(=N)N)NC(=O)[C@H](Cc2c[nH]c3ccccc23)NC(=O)[C@H](Cc2ccccc2)NC(=O)[C@H](Cc2c[nH]c3ccccc23)NC1=O [cRKR] (cyclo(RKRWFW)) | 12 (≈ 11.5 µg/mL) | 50 (≈ 48 µg/mL) | 4 | 18.60 |  |  | 
9 | N=C(N)NCCC[C@@H]1NC(=O)[C@H](CCCNC(=N)N)NC(=O)[C@H](CCCCNC(=O)c2ccc3c(c2)C2(OC3=O)c3ccc(O)cc3Oc3cc(O)ccc32)NC(=O)[C@H](Cc2c[nH]c3ccccc23)NC(=O)[C@H](Cc2c[nH]c3ccccc23)NC(=O)[C@H](CCCNC(=N)N)NC1=O [cW2[Fluos]] (cyclo(RRRWWK(6FAM))) | >100 | >100 | 9 | 19.28 |  |  | 
10 | N=C(N)NCCC[C@@H]1NC(=O)[C@H](CCCCNC(=O)c2ccc3c(c2)C2(OC3=O)c3ccc(O)cc3Oc3cc(O)ccc32)NC(=O)[C@H](Cc2c[nH]c3ccccc23)NC(=O)[C@H](Cc2c[nH]c3ccccc23)NC(=O)[C@H](Cc2c[nH]c3ccccc23)NC(=O)[C@H](CCCNC(=N)N)NC1=O [cW3[Fluos]] (cyclo(RRWWWK(6FAM))) | >100 | >100 | 2 | 22.08 |  |  | 
11 | COc1ccc2c(CC3NC(=O)[C@H](Cc4c[nH]c5ccccc45)NC(=O)[C@H](CCCNC(=N)N)NC(=O)[C@H](CCCNC(=N)N)NC(=O)[C@H](CCCNC(=N)N)NC(=O)[C@H](Cc4c[nH]c5ccccc45)NC3=O)cc(=O)oc2c1 (stereo partly drawn) [cW[Cu]W] (cyclo(RRRW[X1]W)) | 6 (≈ 6.52 µg/mL) | 25 (≈ 27.2 µg/mL) | 23 | 18.40 | pronounced membrane disruption | slightly higher | 
12 | N=C(N)NCCC[C@@H]1NC(=O)[C@H](CCCNC(=N)N)NC(=O)[C@H](Cc2c[nH]c3ccccc23)NC(=O)[C@H](CNc2ccc([N+](=O)[O-])c3nonc23)NC(=O)[C@H](Cc2c[nH]c3ccccc23)NC(=O)[C@H](CCCNC(=N)N)NC1=O [cW[NBD]W] (cyclo(RRRW[Dap](NBD)W)) | 25 (≈ 27.3 µg/mL) | 50 (≈ 54.5 µg/mL) | 76 | 17.90 | pronounced membrane disruption |  | 
13 | N=C(N)NCCC[C@@H]1NC(=O)[C@H](CCCNC(=N)N)NC(=O)[C@H](Cc2c[nH]c3ccccc23)NC(=O)[C@H](CSCc2cc(=O)oc3cc(O)c(Br)cc23)NC(=O)[C@H](Cc2c[nH]c3ccccc23)NC(=O)[C@H](CCCNC(=N)N)NC1=O [cW[S-Cu]W] (cyclo(RRRWC(X2)W)) | 6 (≈ 7.18 µg/mL) | 25 (≈ 29.9 µg/mL) | 76 | 18.91 | pronounced membrane disruption | slightly higher | 
14 | polymyxin B |  |  |  |  |  |  | high membrane permeabilising potential
